{
  "source": "patent US11192863B2",
  "about": "“Antiviral compounds and methods” (Biotron Limited, priority 2003, dated 2021)",
  "key": {"[1]": {"tested_on": "MHV (strain MHV-A59)", "settings": "L929 cells"}, "[2]": {"biological_target": "229E-CoV E-protein (Human coronavirus 229E, UniProt P19741)", "sequence (P19741 whole entry)": "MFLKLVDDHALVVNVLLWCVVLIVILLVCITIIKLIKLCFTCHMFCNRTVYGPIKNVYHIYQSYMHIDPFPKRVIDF", "assay": "Bacterial bio-assay for 229E-CoV E-protein", "settings": "halo of growth score; E. coli expressing E protein at 37° C."}, "[3]": {"biological_target": "Vpu protein (Human immunodeficiency virus type 1 group M subtype B, UniProt P05919)", "sequence (P05919 whole entry)": "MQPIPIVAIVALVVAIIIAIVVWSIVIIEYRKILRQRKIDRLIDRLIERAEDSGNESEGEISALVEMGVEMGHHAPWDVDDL", "settings": "halo of growth score between zero and six; XL1-blue E. coli with pPL-Vpu, no adenine, 37° C."}, "[4]": {"biological_target": "SARS-CoV E protein (Severe acute respiratory syndrome coronavirus, UniProt P59637)", "sequence (P59637 whole entry, looked up)": "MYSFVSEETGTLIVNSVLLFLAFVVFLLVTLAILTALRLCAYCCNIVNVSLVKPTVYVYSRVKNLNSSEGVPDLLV", "assay_type": "cell-based"}},
  "note": "Read-outs that look alike come from different tables or passages of the source.",
  "data": [
    {"compound": "N=C(N)NC(=O)/C=C/c1ccccc1-c1ccccc1", "note": "[2-phenylcinnamoylguanidine]", "values": [
      {"measurement": "Percent reduction in Plaque number/# experiments", "setting": "[1]; 1 uM", "value": "42/1%"},
      {"measurement": "Percent reduction in Plaque number/# experiments", "setting": "[1]; 10 uM", "value": "100/1%"},
      {"measurement": "229E E protein Inhibition (score)", "setting": "[2]", "value": 3.0, "unit": "score"},
      {"measurement": "Vpu Inhibition (score/# of times tested)", "setting": "[3]", "value": "2.1/2 score"}
    ]},
    {"compound": "COc1cc(/C=C/C(=O)NC(=N)N)cc(OC)c1OC", "note": "[3,4,5-trimethoxycinnamoylguanidine]", "values": [
      {"measurement": "Percent reduction in Plaque number/# experiments", "setting": "[1]; 1 uM", "value": "21/1%"},
      {"measurement": "Percent reduction in Plaque number/# experiments", "setting": "[1]; 10 uM", "value": "84/1%"},
      {"measurement": "Percent reduction in Plaque number/# experiments", "setting": "[1]; 20 uM", "value": "84/1%"},
      {"measurement": "229E E protein Inhibition (score)", "setting": "[2]", "value": 0.1, "unit": "score"},
      {"measurement": "SARS E protein Inhibition (score/# of times tested)", "setting": "[4]", "value": "2.25/1 score"}
    ]},
    {"compound": "N=C(N)NC(=O)/C=C/c1ccc(F)c(F)c1", "note": "[3,4-difluorocinnamoylguanidine]", "values": [
      {"measurement": "Percent reduction in Plaque number/# experiments", "setting": "[1]; 1 uM", "value": "50/1%"},
      {"measurement": "Percent reduction in Plaque number/# experiments", "setting": "[1]; 10 uM", "value": "91/2%"},
      {"measurement": "Toxic (noted in place of plaque reduction)", "setting": "[1]; 20 uM", "value": "Toxic"},
      {"measurement": "229E E protein Inhibition (score)", "setting": "[2]", "value": 0.4, "unit": "score"},
      {"measurement": "Vpu Inhibition (score/# of times tested)", "setting": "[3]", "value": "2.06/2 score"}
    ]},
    {"compound": "N=C(N)NC(=O)/C=C/c1ccc2ccccc2c1", "note": "[3-(2-napthyl)acryloylguanidine]", "values": [
      {"measurement": "Percent reduction in Plaque number/# experiments", "setting": "[1]; 1 uM", "value": "40/1%"},
      {"measurement": "Percent reduction in Plaque number/# experiments", "setting": "[1]; 10 uM", "value": "93/1%"},
      {"measurement": "Percent reduction in Plaque number/# experiments", "setting": "[1]; 20 uM", "value": "93/1%"},
      {"measurement": "229E E protein Inhibition (score)", "setting": "[2]", "value": 3.0, "unit": "score"},
      {"measurement": "SARS E protein Inhibition (score/# of times tested)", "setting": "[4]", "value": "3.88/1 score"},
      {"measurement": "Vpu Inhibition (score/# of times tested)", "setting": "[3]", "value": "1.56/2 score"}
    ]},
    {"compound": "CCOc1cccc(/C=C/C(=O)NC(=N)N)c1", "note": "[3-ethoxycinnamoylguanidine]", "values": [
      {"measurement": "Percent reduction in Plaque number/# experiments", "setting": "[1]; 1 uM", "value": "58/1%"},
      {"measurement": "Percent reduction in Plaque number/# experiments", "setting": "[1]; 10 uM", "value": "89/2%"},
      {"measurement": "Percent reduction in Plaque number/# experiments", "setting": "[1]; 20 uM", "value": "100/1%"},
      {"measurement": "229E E protein Inhibition (score)", "setting": "[2]", "value": 0.3, "unit": "score"},
      {"measurement": "Vpu Inhibition (score/# of times tested)", "setting": "[3]", "value": "1.9/2 score"}
    ]},
    {"compound": "N=C(N)NC(=O)/C=C/c1cccc(F)c1", "note": "[3-fluorocinnamoylguanidine]", "values": [
      {"measurement": "Percent reduction in Plaque number/# experiments", "setting": "[1]; 1 uM", "value": "31/1%"},
      {"measurement": "Percent reduction in Plaque number/# experiments", "setting": "[1]; 10 uM", "value": "93/2%"},
      {"measurement": "Percent reduction in Plaque number/# experiments", "setting": "[1]; 20 uM", "value": "100/1%"},
      {"measurement": "229E E protein Inhibition (score)", "setting": "[2]", "value": 0.5, "unit": "score"},
      {"measurement": "SARS E protein Inhibition (score/# of times tested)", "setting": "[4]", "value": "1.50/1 score"},
      {"measurement": "Vpu Inhibition (score/# of times tested)", "setting": "[3]", "value": "1.9/2 score"}
    ]},
    {"compound": "CC(C)c1cccc(/C=C/C(=O)NC(=N)N)c1.Cl", "note": "[3-isopropylcinnamoylguanidine hydrochloride]", "values": [
      {"measurement": "Percent reduction in Plaque number/# experiments", "setting": "[1]; 1 uM", "value": "32/1%"},
      {"measurement": "Percent reduction in Plaque number/# experiments", "setting": "[1]; 10 uM", "value": "99/2%"},
      {"measurement": "229E E protein Inhibition (score)", "setting": "[2]", "value": 4.0, "unit": "score"},
      {"measurement": "Vpu Inhibition (score/# of times tested)", "setting": "[3]", "value": "2.6/2 score"}
    ]},
    {"compound": "N=C(N)NC(=O)/C=C/c1cccc(-c2ccccc2)c1", "note": "[3-phenylcinnamoylguanidine]", "values": [
      {"measurement": "Percent reduction in Plaque number/# experiments", "setting": "[1]; 1 uM", "value": "64/3%"},
      {"measurement": "Percent reduction in Plaque number/# experiments", "setting": "[1]; 10 uM", "value": "86/2%"},
      {"measurement": "Toxic (noted in place of plaque reduction)", "setting": "[1]; 20 uM", "value": "Toxic"},
      {"measurement": "229E E protein Inhibition (score)", "setting": "[2]", "value": 2.9, "unit": "score"},
      {"measurement": "SARS E protein Inhibition (score/# of times tested)", "setting": "[4]", "value": "3.13/1 score"},
      {"measurement": "Vpu Inhibition (score/# of times tested)", "setting": "[3]", "value": "2.54/3 score"}
    ]},
    {"compound": "CC(C)(C)c1cccc(/C=C/C(=O)NC(=N)N)c1", "note": "[3-t-butylcinnamoylguanidine]", "values": [
      {"measurement": "Percent reduction in Plaque number/# experiments", "setting": "[1]; 1 uM", "value": "49/2%"},
      {"measurement": "Percent reduction in Plaque number/# experiments", "setting": "[1]; 10 uM", "value": "94/3%"},
      {"measurement": "Toxic (noted in place of plaque reduction)", "setting": "[1]; 20 uM", "value": "Toxic"},
      {"measurement": "229E E protein Inhibition (score)", "setting": "[2]", "value": 3.9, "unit": "score"},
      {"measurement": "SARS E protein Inhibition (score/# of times tested)", "setting": "[4]", "value": "2.00/1 score"},
      {"measurement": "Vpu Inhibition (score/# of times tested)", "setting": "[3]", "value": "2.06/2 score"}
    ]},
    {"compound": "N=C(N)NC(=O)/C=C/c1ccc(C(F)(F)F)cc1", "note": "[4-(trifluoromethyl)cinnamoylguanidine]", "values": [
      {"measurement": "Percent reduction in Plaque number/# experiments", "setting": "[1]; 1 uM", "value": "46/3%"},
      {"measurement": "Percent reduction in Plaque number/# experiments", "setting": "[1]; 10 uM", "value": "95/3%"},
      {"measurement": "Percent reduction in Plaque number/# experiments", "setting": "[1]; 20 uM", "value": "97/3%"},
      {"measurement": "229E E protein Inhibition (score)", "setting": "[2]", "value": 2.3, "unit": "score"},
      {"measurement": "SARS E protein Inhibition (score/# of times tested)", "setting": "[4]", "value": "2.75/1 score"},
      {"measurement": "Vpu Inhibition (score/# of times tested)", "setting": "[3]", "value": "2.2/2 score"}
    ]},
    {"compound": "CC(C)(C)c1ccc(/C=C/C(=O)NC(=N)N)cc1", "note": "[4-t-butylcinnamoylguanidine]", "values": [
      {"measurement": "229E E protein Inhibition (score)", "setting": "[2]", "value": 4.0, "unit": "score"},
      {"measurement": "SARS E protein Inhibition (score/# of times tested)", "setting": "[4]", "value": "4.00/1 score"},
      {"measurement": "Vpu Inhibition (score/# of times tested)", "setting": "[3]", "value": "0.19/2 score"}
    ]},
    {"compound": "NC(N)=NC(=O)c1ccc2cc(C(=O)N=C(N)N)ccc2c1", "note": "[N,N′-Bis(amidino)napthalene-2,6-dicarboxamide]", "values": [
      {"measurement": "Percent reduction in Plaque number/# experiments", "setting": "[1]; 1 uM", "value": "0/1%"},
      {"measurement": "Percent reduction in Plaque number/# experiments", "setting": "[1]; 10 uM", "value": "16/1%"},
      {"measurement": "Percent reduction in Plaque number/# experiments", "setting": "[1]; 20 uM", "value": "19/1%"},
      {"measurement": "229E E protein Inhibition (score)", "setting": "[2]", "value": 0.3, "unit": "score"},
      {"measurement": "SARS E protein Inhibition (score/# of times tested)", "setting": "[4]", "value": "0.25/2 score"}
    ]},
    {"compound": "N=C(N)NC(=O)COc1ccc(Cl)cc1", "note": "[[(4-Chlorophenoxy-acetyl]guanidine, (4-Chlorophenoxy-acetyl)guanidine]", "values": [
      {"measurement": "Percent reduction in Plaque number/# experiments", "setting": "[1]; 1 uM", "value": "0/1%"},
      {"measurement": "Percent reduction in Plaque number/# experiments", "setting": "[1]; 10 uM", "value": "16/1%"},
      {"measurement": "Percent reduction in Plaque number/# experiments", "setting": "[1]; 20 uM", "value": "19/1%"},
      {"measurement": "SARS E protein Inhibition (score/# of times tested)", "setting": "[4]", "value": "0.19/2 score"},
      {"measurement": "Vpu Inhibition (score/# of times tested)", "setting": "[3]", "value": "0.56/2 score"}
    ]},
    {"compound": "N=C(N)NC(=O)/C=C/c1ccoc1", "note": "[trans-3-Furanacryoylguanidine, trans-3-furanacryoylguanidine]", "values": [
      {"measurement": "Percent reduction in Plaque number/# experiments", "setting": "[1]; 1 uM", "value": "48/1%"},
      {"measurement": "Percent reduction in Plaque number/# experiments", "setting": "[1]; 10 uM", "value": "65/1%"},
      {"measurement": "Percent reduction in Plaque number/# experiments", "setting": "[1]; 20 uM", "value": "70/1%"},
      {"measurement": "SARS E protein Inhibition (score/# of times tested)", "setting": "[4]", "value": "0.88/2 score"},
      {"measurement": "Vpu Inhibition (score/# of times tested)", "setting": "[3]", "value": "0.38/2 score"}
    ]}
  ]
}
